The results in this text go back to paper PMC12455572, “Amphipathic Proline-Rich Cell Penetrating Peptides for Targeting Mitochondria” (ACS Chemical Biology, 2025).

Assay [1] relates to MCF-7 cells. As to the kind of experiment: Colocalization of peptide with MitoTracker (Manders' coefficients from confocal images). Format: cell-based. As to conditions: MCF-7, after 24 h rest versus after 1 h incubation, Figure S7B; 10 µM for (ChaZZ)3, otherwise concentration not stated. Here is the method:
(§1) MCF-7 cells were seeded in a 8-μwell Ibidi plate at 25′000 cells/well in DMEM (100 μL, 10% FCS) and allowed to adhere overnight. The medium was removed, the cells were washed with PBS (200 μL, 1x) and incubated with the peptide solution at 20 μM, 10 μM, 5 μM or 2.5 μM in DMEM (200 μL, 1% FCS) for 1 h at 37 °C. The medium was removed, and the cells were washed with PBS (200 μL, 2x). MitoTracker Deep Red was distributed at 20 nM in DMEM (200 μL, 1% FBS) and the cells were incubated at 37 °C for 25 min. The medium was removed, and the cells were washed with PBS (200 μL, 2x). Hoechst333342 was distributed at 2 μM in DMEM (200 μL, 1% FBS) and the cells were incubated at 37 °C for 5 min. The cells were washed with PBS (200 μL, 2x), and FluoroBrite medium (200 μL) was added. The live cells were monitored on the confocal microscope at 37 °C, 5% CO2.
(§2) For the cells subjected to a 24 h rest period, the FluoroBrite medium was exchanged for DMEM (200 μL, 10% FBS) after the initial imaging, and the cells were kept in this medium for 24 h. The culture medium was then exchanged for FluoroBrite DMEM, and the cells were imaged again.
(§3) Fluorescence images of cells were collected using a Nikon Eclipse T1 (inverse) microscope equipped with a Yokogawa Confocal Scanner Unit CSU-W1-T2, containing a spinning disk (50 µm). The microscope is equipped with two EMCCD Andor iXon Ultra cameras. Emission in the blue channel (405 nm) was filtered with a 450/50 bandpass filter, emission in the green channel (488 nm) was filtered with a 525/50 bandpass, and the emission in the red channel (641 nm) was filtered with a 708/75 bandpass filter. Fluorescence images were obtained using an oil-immersion objective with a magnification of 100 × 1.4 CFI Plan Apo Oil.
(§4) Each experiment was repeated at least three times. The images acquired were adjusted using ImageJ2 software. Correlation coefficients were determined on entire images using JaCOP plugin.1 […]
(§5) MCF-7 cells were seeded in a 8-µwell Ibidi plate at 25’000 cells/well in DMEM (100 µL, 10% FCS) and allowed to adhere overnight. The medium was removed. The cells were washed with PBS (200 µL, 1x) and incubated with the peptide solution at 20 µM, 10 µM, 5 µM, or 2.5 µM in DMEM (200 µL, 1% FCS) for 1 h at 37 °C. The medium was removed, and the cells were washed with PBS (200 µL, 2x).
For imaging of mitochondria, MitoTracker Deep Red was added as described in the manuscript. […]
PBS (200 µL, 2x). For imaging of the nucleus, Hoechst333342 was added at (200 µL, 2 µM in DMEM, 1% FBS) followed by incubation of the cells at 37 °C for 5 min. The cells were washed with PBS (200 µL, 2x), and FluoroBrite medium (200 µL) was added. The live cells were monitored on the confocal microscope […]
MCF-7 cells were seeded in a 96-well plate at 7’500 cells/well in cell culture medium (200 µL, 10% FCS), and allowed to adhere overnight. The medium was removed, the cells were washed with PBS (100 µL, 1x) and incubated with the peptide solution at 20 µM, 10 µM, 5 µM, or 2.5 µM in DMEM (200 µL, 1% FCS) for 1 h at 37 °C. The medium was removed, and the cells were washed with PBS (100 µL, 1x). The MTT solution in DMEM (110 µL, 1.2 mM, 1% FBS) was added. The cells were incubated for 3 h at 37 °C. The supernatant was carefully removed, and DMSO (100 µL) was added. The plate was gently shaken for 30 min and the absorption of formazan solution at 570 nm was measured on the plate reader. […]

In assay [2] the test system is MCF-7 cells. Nature of the assay: Confocal microscopy of live cells: cellular uptake and intracellular localization. Type of assay: cell-based. The note with it: live MCF-7 cells; for Cellular uptake and intracellular localization (confocal microscopy): 1 h, 37 °C, DMEM + 1% FBS; for Intracellular localization after 24 h rest (confocal microscopy, Figure S7): 1 h incubation at 37 °C, washing, 24 h rest in DMEM + 10 % FBS, concentration not given. Here is the method: MitoTracker Deep Red was used as a counter stain for mitochondria and Hoechst 33342 for the nucleus. […] To explore whether PPII-helicity is key for mitochondrial localization, we prepared peptide CF-Ahx-(ChaRR)3-NH2 with Arg instead of Gup residues. This control peptide features a flexible conformation as judged by CD spectroscopy (Figure S1B). […] These findings show the importance of the secondary structure of the CPP for subcellular organelle localization.
as §1, §2, §3, §4, §5
For imaging of mitochondria, MitoTracker Deep Red was added as described in the manuscript. For imaging of endosomes/lysosomes, Ly s o Tr a c k e r Deep Red was added (200 µL, 20 nM in DMEM, 1% FBS) followed by incubation of the cells at 37 °C for 25 min. The medium was removed, and the cells were washed with PBS (200 µL, 2x). For imaging of the nucleus, Hoechst333342 was added at (200 µL, 2 µM in DMEM, 1% FBS) followed by incubation of the cells at 37 °C for 5 min. The cells were washed with PBS (200 µL, 2x), and FluoroBrite medium (200 µL) was added. The live cells were monitored on the confocal microscope […]
MCF-7 cells were seeded in a 96-well plate at 7’500 cells/well in cell culture medium (200 µL, 10% FCS), and allowed to adhere overnight. The medium was removed, the cells were washed with PBS (100 µL, 1x) and incubated with the peptide solution at 20 µM, 10 µM, 5 µM, or 2.5 µM in DMEM (200 µL, 1% FCS) for 1 h at 37 °C. The medium was removed, and the cells were washed with PBS (100 µL, 1x). The MTT solution in DMEM (110 µL, 1.2 mM, 1% FBS) was added. The cells were incubated for 3 h at 37 °C. The […]

The mark [3] stands for this setting: concentration not stated at the place or given within the value.

“Also recorded” adds a separate entry of the source. Where a SMILES comes first, the peptide text is derived from it. [ ]: non-standard residue; d: D form. The star is where a group is joined. 5FAM = O=C1OC2(c3ccc(O)cc3Oc3cc(O)ccc32)c2ccc(C(=O)*)cc21; Pro(cis-4-guanidino) = NC(N)=N[C@@H]1CN[C@H](C(=O)O)C1; Cha = N[C@@H](CC1CCCCC1)C(=O)O; Ahx = NCCCCCC(=O)O

For CF-Ahx-(ChaZZ)3-NH2, the “Fold change of peptide overlap with MitoTracker (M1) after 24 h rest” value (“Fold change of peptide overlap” below) with MCF-7 cells [1] was over 2 fold. For the same compound, the “Cellular uptake and intracellular localization (confocal microscopy)” value is “low uptake; also recorded: no fluorescence was visible; also recorded: minimal fluorescence” in the assay with MCF-7 cells [2] (5 μM peptide); “localizes in the mitochondria; also recorded: localized in the mitochondria as well as in the cytoplasm and the nucleoli” in the assay with MCF-7 cells [2] (10 μM peptide, MitoTracker Deep Red and Hoechst 33342 counterstain); “localized in the cytoplasm, the nucleoli, and the mitochondria at concentrations of 10 μM and higher” with MCF-7 cells [2] (setting [3]). For the same compound, in the assay with MCF-7 cells [2], the “Intracellular localization after 24 h rest (confocal microscopy, Figure S7)” value was “localized predominantly in the mitochondria”.

Regarding CF-Ahx-(ChaZZ)2-Cha-NH2, in the assay with MCF-7 cells [1], the “Fold change of MitoTracker overlap with the peptide (M2) after 24 h rest” value is 0.4 fold and the “Fold change of peptide overlap” value was determined as 1.3 fold. For the same compound, the “Cellular uptake and intracellular localization (confocal microscopy)” value with MCF-7 cells [2] (20 μM peptide) was “strong mitochondrial colocalization at 20 μM (Figure D) with limited endosomal entrapment”. Also, in the assay on MCF-7 cells [2] (setting [3]), the “Cellular uptake and intracellular localization (confocal microscopy)” value was “localized in mitochondria and the cytoplasm”. In addition, the “Intracellular localization after 24 h rest (confocal microscopy, Figure S7)” value with MCF-7 cells [2] is “localized in the cytoplasm as punctuated fluorescence and remains slightly in the mitochondria”.

For `N=C(N)N[C@H]1C[C@@H](C(=O)N2C[C@@H](NC(=N)N)C[C@H]2C(=O)N[C@@H](CC2CCCCC2)C(=O)N2C[C@@H](NC(=N)N)C[C@H]2C(=O)N2C[C@@H](NC(=N)N)C[C@H]2C(=O)N[C@@H](CC2CCCCC2)C(=O)N2C[C@@H](NC(=N)N)C[C@H]2C(=O)N2C[C@@H](NC(=N)N)C[C@H]2C(=O)N[C@@H](CC2CCCCC2)C(N)=O)N(C(=O)[C@H](CC2CCCCC2)NC(=O)CCCCCNC(=O)c2ccc3c(c2)C(=O)OC32c3ccc(O)cc3Oc3cc(O)ccc32)C1` [(ChaZZ)3-Cha, CF-Ahx-(ChaZZ)3-Cha-NH2] ({5FAM-Ahx}-[Cha][Pro(cis-4-guanidino)][Pro(cis-4-guanidino)][Cha][Pro(cis-4-guanidino)][Pro(cis-4-guanidino)][Cha][Pro(cis-4-guanidino)][Pro(cis-4-guanidino)][Cha]-NH2), in the assay on MCF-7 cells [1], the “Fold change of MitoTracker overlap with the peptide (M2) after 24 h rest” value is “up to 3.6 fold” and the “Fold change of peptide overlap” value is recorded as “more than 1.5 fold”. Moreover, in the assay with MCF-7 cells [2] (5 μM peptide), the “Cellular uptake and intracellular localization (confocal microscopy)” value is on record as “intracellular localization”. In the assay with MCF-7 cells [2] (setting [3]), the “Cellular uptake and intracellular localization (confocal microscopy)” value is “localized in mitochondria, endosomes, and the plasma membrane; also recorded: localized in the mitochondria and not the nucleus but was also trapped in endosomes”. For the same compound, in the assay with MCF-7 cells [2], the “Intracellular localization after 24 h rest (confocal microscopy, Figure S7)” value is “localized predominantly in the mitochondria”.
